# According to patent publication US10758534B2 (Vertex Pharmaceuticals Incorporated, priority 2014, dated 2020):
# Target: T1, F508del (Homo sapiens, UniProt P13569, DEL508-508)
# T1 construct: expressed in transfected cells
# Assay: Protocol 1: membrane potential optical assay (FLIPR III, voltage sensing dye), identification of potentiator compounds
# Assay type: cell-based
# Conditions: Table 3, compounds of Table 1
# Procedure, shortened: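 Gating potentiation is read as a membrane-potential fluorescence change (FLIPR III, voltage-sensing dye) after one forskolin addition under a Cl− gradient, with gluconate replacing chloride, pH 7.4. Cells are F508del-expressing NIH3T3 mouse fibroblasts held 24 h at 27 °C and exposed to compound before dye loading.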
# T1 sequence (P13569 with tags, fused parts or gaps DEL508-508): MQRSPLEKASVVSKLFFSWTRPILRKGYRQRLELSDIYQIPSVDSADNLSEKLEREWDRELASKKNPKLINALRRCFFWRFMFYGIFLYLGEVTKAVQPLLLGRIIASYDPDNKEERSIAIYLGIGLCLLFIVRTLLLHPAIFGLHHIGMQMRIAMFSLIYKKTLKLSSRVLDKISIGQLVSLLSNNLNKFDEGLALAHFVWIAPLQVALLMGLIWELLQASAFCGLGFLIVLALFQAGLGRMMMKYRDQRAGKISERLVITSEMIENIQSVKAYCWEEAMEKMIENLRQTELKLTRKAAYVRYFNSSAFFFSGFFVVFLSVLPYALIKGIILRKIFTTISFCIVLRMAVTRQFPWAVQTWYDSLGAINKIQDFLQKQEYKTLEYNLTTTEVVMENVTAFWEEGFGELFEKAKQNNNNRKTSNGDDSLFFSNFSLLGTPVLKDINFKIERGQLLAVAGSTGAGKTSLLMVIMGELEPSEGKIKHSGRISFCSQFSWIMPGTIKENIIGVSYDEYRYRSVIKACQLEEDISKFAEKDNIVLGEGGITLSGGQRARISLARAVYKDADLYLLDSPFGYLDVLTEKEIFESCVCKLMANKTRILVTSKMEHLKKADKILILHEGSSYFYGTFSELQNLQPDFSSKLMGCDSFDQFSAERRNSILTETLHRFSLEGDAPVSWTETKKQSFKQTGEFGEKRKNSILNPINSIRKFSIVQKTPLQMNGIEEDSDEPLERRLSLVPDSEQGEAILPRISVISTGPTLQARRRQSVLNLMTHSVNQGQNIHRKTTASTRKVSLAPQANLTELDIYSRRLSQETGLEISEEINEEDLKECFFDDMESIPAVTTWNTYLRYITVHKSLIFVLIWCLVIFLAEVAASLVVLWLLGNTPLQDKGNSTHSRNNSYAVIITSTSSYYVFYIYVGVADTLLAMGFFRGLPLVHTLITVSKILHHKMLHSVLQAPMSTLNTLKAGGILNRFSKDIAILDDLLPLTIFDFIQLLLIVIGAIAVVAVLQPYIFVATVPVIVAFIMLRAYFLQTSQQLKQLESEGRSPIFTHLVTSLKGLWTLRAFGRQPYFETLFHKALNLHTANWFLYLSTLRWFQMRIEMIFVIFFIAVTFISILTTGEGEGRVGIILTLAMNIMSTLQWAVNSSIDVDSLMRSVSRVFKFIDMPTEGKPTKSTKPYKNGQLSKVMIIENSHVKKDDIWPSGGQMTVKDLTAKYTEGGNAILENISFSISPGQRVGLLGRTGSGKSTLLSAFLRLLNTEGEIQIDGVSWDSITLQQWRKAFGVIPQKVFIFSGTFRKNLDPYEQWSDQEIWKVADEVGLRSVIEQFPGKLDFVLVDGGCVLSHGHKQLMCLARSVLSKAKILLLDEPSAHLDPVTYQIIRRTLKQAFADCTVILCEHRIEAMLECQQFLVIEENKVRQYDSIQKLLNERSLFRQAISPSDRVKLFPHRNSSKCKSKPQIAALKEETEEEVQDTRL
row,Structure (SMILES),EC30
1,"Cc1cc(C)c(Oc2nc(N3[C@H](C)CC[C@@H]3C)c(C)cc2C(=O)NS(=O)(=O)c2cccc(N)n2)c(C)c1 [Compound 1589, N-[(6-amino-2-pyridyl)sulfonyl]-6-[(2R,5S)-2,5-dimethylpyrrolidin-1-yl]-5-methyl-2-(2,4,6-trimethylphenoxy)pyridine-3-carboxamide]",+++ (“+++” means <3 uM)
2,"CC(C)COc1cc(F)cc(-c2ccc(C(=O)NS(=O)(=O)c3cccc(N)n3)c(O[C@@H]3CCOC3)n2)c1 [Compound 1592, N-[(6-amino-2-pyridyl)sulfonyl]-6-(3-fluoro-5-isobutoxy-phenyl)-2-[(3R)-tetrahydrofuran-3-yl]oxy-pyridine-3-carboxamide]",+++ (“+++” means <3 uM)
3,"CC(C)COc1cc(F)cc(-c2ccc(C(=O)NS(=O)(=O)c3cccnc3N)c(N3C[C@@H](C)CC3(C)C)n2)c1 [Compound 1593, N-[(2-amino-3-pyridyl)sulfonyl]-6-(3-fluoro-5-isobutoxy-phenyl)-2-[(4S)-2,2,4-trimethylpyrrolidin-1-yl]pyridine-3-carboxamide]",+++ (“+++” means <3 uM)
4,"CCOc1cccc2c1CN(Cc1c(C)cc(C)cc1C)C2(C)C(=O)NS(=O)(=O)c1ccc(Cl)c(N)n1 (stereo not shown) [Compound 1596, N-[(6-amino-5-chloro-2-pyridyl)sulfonyl]-4-ethoxy-1-methyl-2-[(2,4,6-trimethylphenyl)methyl]isoindoline-1-carboxamide]",+++ (“+++” means <3 uM)
5,"Cc1cc(C)c(Oc2nc(C3=CC(C)(C)CCC3=O)ccc2C(=O)NS(=O)(=O)c2cccc(N)n2)c(C)c1 [Compound 1598, N-[(6-amino-2-pyridyl)sulfonyl]-6-(3,3-dimethyl-6-oxo-cyclohexen-1-yl)-2-(2,4,6-trimethylphenoxy)pyridine-3-carboxamide]",+++ (“+++” means <3 uM)
6,"CC(C)Cc1ccc(C(=O)NS(=O)(=O)c2cccc(N)n2)c(N2C[C@@H](C)CC2(C)C)n1 [Compound 1599, N-[(6-amino-2-pyridyl)sulfonyl]-6-isobutyl-2-[(4S)-2,2,4-trimethylpyrrolidin-1-yl]pyridine-3-carboxamide]",+++ (“+++” means <3 uM)
7,"CC(C)COc1cc(F)cc(-c2ccc(C(=O)NS(=O)(=O)N3CCCC(NS(C)(=O)=O)C3)c(N3CC(C)CC3(C)C)n2)c1 (stereo not shown) [Compound 1600, 6-(3-fluoro-5-isobutoxy-phenyl)-N—[[3-(methanesulfonamido)-1-piperidyl]sulfonyl]-2-(2,2,4-trimethylpyrrolidin-1-yl)pyridine-3-carboxamide]",+++ (“+++” means <3 uM)
8,"CC(C)COc1cc(F)cc(-c2ccc(C(=O)NS(=O)(=O)c3cccc(N)n3)c(OCCC3CCCO3)n2)c1 (stereo not shown) [Compound 1604, N-[(6-amino-2-pyridyl)sulfonyl]-6-(3-fluoro-5-isobutoxy-phenyl)-2-(2-tetrahydrofuran-2-ylethoxy)pyridine-3-carboxamide]",+++ (“+++” means <3 uM)
9,"CC(C)COc1cc(F)cc(-c2ccc(C(=O)NS(=O)(=O)c3cccc(N)n3)c(OCCc3ccncc3)n2)c1 [Compound 1605, N-[(6-amino-2-pyridyl)sulfonyl]-6-(3-fluoro-5-isobutoxy-phenyl)-2-[2-(4-pyridyl)ethoxy]pyridine-3-carboxamide]",+++ (“+++” means <3 uM)
10,"CCOc1cccc2c1CN(Cc1c(C)cc(C)cc1C)C2(C)C(=O)NS(=O)(=O)c1cncs1 (stereo not shown) [Compound 1606, 4-ethoxy-1-methyl-N-thiazol-5-ylsulfonyl-2-[(2,4,6-trimethylphenyl)methyl]isoindoline-1-carboxamide]",+++ (“+++” means <3 uM)
11,"C[C@@H]1CN(c2ncc(F)cc2C(=O)NS(=O)(=O)c2cccc(N)n2)C(C)(C)C1 [Compound 1607, N-[(6-amino-2-pyridyl)sulfonyl]-5-fluoro-2-[(4S)-2,2,4-trimethylpyrrolidin-1-yl]pyridine-3-carboxamide]",++ (“++” means between 3 uM and 10 uM)
12,"CC(C)COc1cc(F)cc(-c2ccc(C(=O)NS(=O)(=O)N3CCCC(O)C3)c(N3C[C@@H](C)CC3(C)C)n2)c1 (stereo partly drawn) [Compound 1608, 6-(3-fluoro-5-isobutoxy-phenyl)-N-[(3-hydroxy-1-piperidyl)sulfonyl]-2-[(4S)-2,2,4-trimethylpyrrolidin-1-yl]pyridine-3-carboxamide]",+++ (“+++” means <3 uM)
13,"Cc1ccc(-c2ccc(C(=O)NS(=O)(=O)c3cccc(N)n3)c(N3CC(C)CC3(C)C)n2)nc1OCC(C)(C)C (stereo not shown) [Compound 1610, N-[(6-amino-2-pyridyl)sulfonyl]-6-[6-(2,2-dimethylpropoxy)-5-methyl-2-pyridyl]-2-(2,2,4-trimethylpyrrolidin-1-yl)pyridine-3-carboxamide]",+++ (“+++” means <3 uM)
14,"CC[C@H]1CN(c2nc(-c3cc(F)cc(OCC(C)C)c3)ccc2C(=O)NS(=O)(=O)c2cccc(N)n2)C(C)(C)C1 [Compound 1611, N-[(6-amino-2-pyridyl)sulfonyl]-2-[(4R)-4-ethyl-2,2-dimethyl-pyrrolidin-1-yl]-6-(3-fluoro-5-isobutoxy-phenyl)pyridine-3-carboxamide]",+++ (“+++” means <3 uM)
15,"CC[C@@H]1CN(c2nc(-c3cc(F)cc(OCC(C)C)c3)ccc2C(=O)NS(=O)(=O)c2cccc(N)n2)C(C)(C)C1 [Compound 1612, N-[(6-amino-2-pyridyl)sulfonyl]-2-[(4S)-4-ethyl-2,2-dimethyl-pyrrolidin-1-yl]-6-(3-fluoro-5-isobutoxy-phenyl)pyridine-3-carboxamide]",+++ (“+++” means <3 uM)
16,"C[C@@H]1CN(c2nc(C(C)(C)C)c(/C=C/C(C)(C)C)cc2C(=O)NS(=O)(=O)c2cccc(N)n2)C(C)(C)C1 [Compound 1613, N-[(6-amino-2-pyridyl)sulfonyl]-6-tert-butyl-5-[(E)-3,3-dimethylbut-1-enyl]-2-[(4S)-2,2,4-trimethylpyrrolidin-1-yl]pyridine-3-carboxamide]",+++ (“+++” means <3 uM)
17,"CC(C)COc1cc(F)cc(-c2ccc(C(=O)NS(=O)(=O)N3CCC[C@@H](N)C3)c(N3C[C@@H](C)CC3(C)C)n2)c1 [Compound 1614, N—[[(3R)-3-amino-1-piperidyl]sulfonyl]-6-(3-fluoro-5-isobutoxy-phenyl)-2-[(4S)-2,2,4-trimethylpyrrolidin-1-yl]pyridine-3-carboxamide]",+++ (“+++” means <3 uM)

# Further lines, results first:
row,EC30,Structure (SMILES)
1,+++ (“+++” means <3 uM),"CC(C)Oc1ccc(-c2ccc(C(=O)NS(=O)(=O)c3ccc(OCc4ccccc4)c(N)n3)c(N3[C@H](C)CC[C@@H]3C)n2)cn1 [Compound 1588, N-[(6-amino-5-benzyloxy-2-pyridyl)sulfonyl]-2-[(2S,5R)-2,5-dimethylpyrrolidin-1-yl]-6-(6-isopropoxy-3-pyridyl)pyridine-3-carboxamide]"
2,+++ (“+++” means <3 uM),"CC(C)=C(C)c1cnc(N2CC(C)CC2(C)C)c(C(=O)NS(=O)(=O)c2cccc(N)n2)c1 (stereo not shown) [Compound 1590, N-[(6-amino-2-pyridyl)sulfonyl]-5-(1,2-dimethylprop-1-enyl)-2-(2,2,4-trimethylpyrrolidin-1-yl)pyridine-3-carboxamide]"
3,+++ (“+++” means <3 uM),"CCOc1cccc2c1CN(Cc1c(C)cc(C)cc1C)C2(C)C(=O)NS(=O)(=O)c1cccnc1N (stereo not shown) [Compound 1591, N-[(2-amino-3-pyridyl)sulfonyl]-4-ethoxy-1-methyl-2-[(2,4,6-trimethylphenyl)methyl]isoindoline-1-carboxamide]"
4,+++ (“+++” means <3 uM),"C[C@@H]1CN(c2nc(C3=CCOCC3)ccc2C(=O)NS(=O)(=O)c2cccc(N)n2)C(C)(C)C1 [Compound 1594, N-[(6-amino-2-pyridyl)sulfonyl]-6-(3,6-dihydro-2H-pyran-4-yl)-2-[(4S)-2,2,4-trimethylpyrrolidin-1-yl]pyridine-3-carboxamide]"
5,+++ (“+++” means <3 uM),"C[C@@H]1CN(c2nc(C3CCOCC3)ccc2C(=O)NS(=O)(=O)c2cccc(N)n2)C(C)(C)C1 [Compound 1595, N-[(6-amino-2-pyridyl)sulfonyl]-6-tetrahydropyran-4-yl-2-[(4S)-2,2,4-trimethylpyrrolidin-1-yl]pyridine-3-carboxamide]"
6,+++ (“+++” means <3 uM),"CCOc1cccc2c1CN(Cc1c(C)cc(C)cc1C)C2(C)C(=O)NS(=O)(=O)c1cccc(C(F)F)n1 (stereo not shown) [Compound 1597, N-[[6-(difluoromethyl)-2-pyridyl]sulfonyl]-4-ethoxy-1-methyl-2-[(2,4,6-trimethylphenyl)methyl]isoindoline-1-carboxamide]"
7,+++ (“+++” means <3 uM),"CC1CN(c2nc(C(C)(C)C)c(C3=CCCCC3)cc2C(=O)NS(=O)(=O)c2cccc(N)n2)C(C)(C)C1 (stereo not shown) [Compound 1601, N-[(6-amino-2-pyridyl)sulfonyl]-6-tert-butyl-5-(cyclohexen-1-yl)-2-(2,2,4-trimethylpyrrolidin-1-yl)pyridine-3-carboxamide]"
8,+++ (“+++” means <3 uM),"Cc1cc(C)c(Oc2nc(C(C)(C)C)ccc2C(=O)N=S(N)(=O)c2cccc(N)n2)c(C)c1 (stereo not shown) [Compound 1602, N-[amino-(6-amino-2-pyridyl)-oxo-$1^6-sulfanylidene]-6-tert-butyl-2-(2,4,6-trimethylphenoxy)pyridine-3-carboxamide]"
9,++ (“++” means between 3 uM and 10 uM),"C[C@@H]1CN(c2ncc(Cl)cc2C(=O)NS(=O)(=O)c2cccc(N)n2)C(C)(C)C1 [Compound 1603, N-[(6-amino-2-pyridyl)sulfonyl]-5-chloro-2-[(4S)-2,2,4-trimethylpyrrolidin-1-yl]pyridine-3-carboxamide]"
10,+++ (“+++” means <3 uM),"Cc1cc(C)c(Oc2nc(C3=CC(C)(C)OC3(C)C)ccc2C(=O)NS(=O)(=O)c2cccc(N)n2)c(C)c1 [Compound 1609, N-[(6-amino-2-pyridyl)sulfonyl]-6-(2,2,5,5-tetramethyl-3-furyl)-2-(2,4,6-trimethylphenoxy)pyridine-3-carboxamide]"
11,+++ (“+++” means <3 uM),"CC(=O)C1CC=C(c2ccc(C(=O)NS(=O)(=O)c3cccc(N)n3)c(Oc3c(C)cc(C)cc3C)n2)CC1 (stereo not shown) [Compound 1615, 6-(4-acetylcyclohexen-1-yl)-N-[(6-amino-2-pyridyl)sulfonyl]-2-(2,4,6-trimethylphenoxy)pyridine-3-carboxamide]"
